Data as given in US20080254480A1, “MICROCYTOXICITY ASSAY BY PRE-LABELING TARGET CELLS” (University of Pittsburgh - Of the Commonwealth System of …, priority 2007, published 2008).

Columns and labels:
BT-20 tumor cells = assay: BrdU labeling of cell nuclear DNA of target cells in microwells of Tarasaki plates; type: cell-based, human; details: 5 μM of BrdU, co-incubated for 24 hours
Protocol: FIG. 2. Graph depicting BrdU concentration versus incubation period for labeling of target cells in microwells of Tarasaki plates. BT-20 tumor cells (250/microwell) were seeded in the miniplates and incubated for 24 hours. Various concentrations of BrdU then were added to the microwells containing adherent tumor cells, and the incubation was continued for various periods of time, as indicated. After this labeling, the adherent tumor cells were fixed and stained, with an isotype-matched control or an anti-BrdU mAb, and then visually analyzed. Each point on the figure represents a mean value of a triplicate. SD was less than 10% of the mean values.
BrdU-labeling of target cells in microwells. Suspensions of tumor target cells were prepared from their adherent monolayers, as described above. Target cells were resuspended in tissue culture medium (e.g., RPMI-1640 supplemented with 10% FCS) in an adequate concentration, to contain 100 to 500 cells per 10 μl. BrdU solution was added to this cell suspension, to get its final concentration of 5 μM. In some experiments, to determine the optimal labeling conditions, the concentration of BrdU was varied. […]

target cells = assay: Functional properties of BrdU labeled target cells (viability, proliferation, TNF family receptor expression); type: cell-based; details: trypan blue dye exclusion; increase of cell numbers in culture; flow cytometry
Excerpt: In order to determine whether BrdU labeling of cell nuclear DNA affects cellular functions, the inventor examined viability (by trypan blue dye exclusion assay) and proliferation (by evaluation of increase of cell numbers in culture) of target cells, after they were labeled with the DNA metabolic label. In addition, expression of the cell membrane-bound TNF family receptors involved in apoptosis mediated by immune effector cells, such as TNFR1, TNFR2, Fas and LT-βR, was investigated using flow cytometry.

O=c1[nH]c(=O)n([C@H]2C[C@H](O)[C@@H](CO)O2)cc1Br [BrdU, 5-bromo-2′-deoxyuridine]
strong and uniformed labeling of nuclei (BT-20 tumor cells): 90% | effect of BrdU labeling on cellular functions tested (viability, proliferation, expression of TNFR1, TNFR2, Fas and LT-βR) (target cells): no significant effect
